From ChEMBL document CHEMBL1201862, “PubChem BioAssay data set” (2004) come the findings set out here.

The structures appear in SMILES notation.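 All cell lines were grown in 96-well plates and treated with compound for 48 hours. GI50 marks 50% less growth.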 Activity calls are given as the source filed them. Cut-off read from the data, not from the text of the source: active = GI50 up to about 1.1 µM and inactive = higher.

Test in all cases: NCI tumour cell line growth inhibition, 48 h
Test [1] deals with ACHN.
Test [2] has as its system CAKI-1.
In test [3] the test system is HCT-15.
Test [4] deals with MCF7.
Test [5] relates to A498.
Test [6] deals with NCI-H23.
Test [7] deals with HCT-116.
Test [8] has as its system K562.
The test system of test [9] is SF-295.
For test [10], the system named is SK-MEL-5.
In test [11] the test system is KM12.
Test [12] concerns U-251.
Test [13] has as its system SN12C.
Test [14] has as its system HOP-92.
Test [15] has as its system SK-MEL-2.
Test [16] concerns SNB-19.
Test [17] has as its system T47D.
Test [18] concerns LXFL 529.
Test [19] concerns M19-MEL.

As for `Clc1ccc(-c2cn3c(nc4ccccc43)c(-c3ccccc3)n2)cc1`, the GI50 in test [1] was 29.6 µM (inactive); in test [2], 16.3 µM (inactive); in [3], more than 100 µM; in [4] it was 28.1 µM (inactive); in test [5] it was 23.9 µM (inactive); in [6], 24.5 µM (inactive). The GI50 is 29.9 µM (inactive) in test [7]; > 84.7 µM (inactive) in test [8]; 13.3 µM (inactive) in test [9]; 17.7 µM (inactive) in [10]; > 57.5 µM (inactive) in [11]; 12.8 µM (inactive) in [12]. The GI50 in test [13] is 36.5 µM (inactive); in [14], 18 µM (inactive); in test [15], 14.1 µM (inactive); in [16], 13.9 µM (inactive); in [17], 36.6 µM (inactive).
With `O=C(O)CC12CC3CC(CC(O)(C3)C1)C2`, the GI50 was > 100 µM (inactive) in [1]; > 100 µM (inactive) in test [2]; more than 100 µM in test [3]; > 100 µM (inactive) in [4]; > 100 µM (inactive) in test [5]; > 100 µM (inactive) in test [6]. The GI50 in [7], in test [8], in test [9], in test [10], in test [11] and in [12] was > 100 µM (inactive) each time. Besides, the GI50 in [13], in test [14], in [15], in [16] and in [17] was > 100 µM (inactive) each time.
For the compound `CC(=O)O[C@H]1CC[C@@]2(C)C(=CC[C@@H]3C2CC[C@]2(C)Nc4oncc4CC32)C1` (stereo partly specified), the GI50 is 25.6 µM (inactive) in test [1]; 31.3 µM (inactive) in test [2]; 33 µM in [3]; 40.6 µM (inactive) in test [5]; 44 µM (inactive) in test [6]; 13 µM (inactive) in test [18]. The GI50 is 15.5 µM (inactive) in test [7]; 6.68 µM (inactive) in test [8]; 28.5 µM (inactive) in test [19]; 32.6 µM (inactive) in test [9]; 17.8 µM (inactive) in [10]; 22.6 µM (inactive) in [11]. The GI50 in [12] is 37.4 µM (inactive); in [15], 44.5 µM (inactive).
With `CCOC(=O)NC(Nc1ccc(F)c(F)c1)(C(=O)OCC)C(F)(F)F` (stereo unspecified), the GI50 in [1] was 27 µM (inactive); in [2], > 100 µM (inactive); in test [3] it was more than 100 µM; in test [4] it was > 100 µM (inactive); in test [5], > 100 µM (inactive); in test [6], > 100 µM (inactive). The GI50 was > 40.8 µM (inactive) in test [7]; 17.8 µM (inactive) in test [8]; 74 µM (inactive) in [9]; 13.8 µM (inactive) in test [10]; 3.23 µM (inactive) in [11]; > 100 µM (inactive) in test [12]. Moreover, the GI50 in test [13] was > 100 µM (inactive); in [14], > 100 µM (inactive); in test [15], 17.5 µM (inactive); in test [16], > 100 µM (inactive); in [17] it was 18.2 µM (inactive).
Consider `CC(C)c1cccc(C(C)C)c1NC1=CC(=O)C(=O)c2ccccc21`, for which the GI50 was > 100 µM (inactive) in test [2]; more than 100 µM in [3]; > 100 µM (inactive) in test [5]; 72.9 µM (inactive) in test [6]; > 100 µM (inactive) in test [18]; > 100 µM (inactive) in test [7]. Moreover, the GI50 in [8] was > 100 µM (inactive); in test [19], 22.3 µM (inactive); in [9], > 100 µM (inactive); in test [10], > 100 µM (inactive); in test [11] it was > 100 µM (inactive); in [12], > 100 µM (inactive). For the same compound, the GI50 in test [13], in [14], in test [15] and in test [16] was > 100 µM (inactive) throughout.
`COC(=O)[C@H]1C2CC[C@@H]3C45C[C@@H](c6ccoc6)O[C@@H]4O[C@@H](O2)C31CCC5C` (stereo partly specified): the GI50 in [1] is > 100 µM (inactive); in test [2] it was > 100 µM (inactive); in test [3], 86.3 µM; in test [5] it was > 100 µM (inactive); in test [6], > 100 µM (inactive); in test [18], 57.7 µM (inactive). Also, the GI50 in test [7] is > 100 µM (inactive); in test [8], 32.1 µM (inactive); in [9], 97.5 µM (inactive); in test [10], > 100 µM (inactive); in test [11], > 100 µM (inactive); in test [12] it was > 100 µM (inactive). Also, the GI50 in test [13] is > 100 µM (inactive); in test [14], 44.6 µM (inactive); in [15], 71.1 µM (inactive); in test [16], > 100 µM (inactive).
As to `Clc1ccc(CNc2nc3ccccc3nc2-c2cccs2)c(Cl)c1`, the GI50 in test [1] was 75.2 µM (inactive); in test [3] it was 38.1 µM; in test [6], 68.5 µM (inactive); in [18], > 100 µM (inactive); in test [7], 49 µM (inactive); in test [8], > 100 µM (inactive). In addition, the GI50 in test [19] was 66.8 µM (inactive); in [9] it was > 100 µM (inactive); in [12] it was 89.3 µM (inactive); in test [13], > 100 µM (inactive); in test [14], 13.1 µM (inactive); in test [15], > 100 µM (inactive). Further, the GI50 in test [16] is > 100 µM (inactive).
Regarding `CSc1ncc2c(C#N)c3sc4ccccc4n3c(=O)c2n1`, the GI50 in [1] is > 100 µM (inactive); in test [2] it was 73.8 µM (inactive); in test [3], 80.4 µM; in [4], 16.8 µM (inactive); in [5], > 100 µM (inactive); in [6] it was > 100 µM (inactive). The GI50 in test [7] is > 100 µM (inactive); in [8], > 100 µM (inactive); in test [9], > 100 µM (inactive); in [10] it was 64.6 µM (inactive); in test [11] it was 54.2 µM (inactive); in test [12] it was 24 µM (inactive). In addition, the GI50 is > 100 µM (inactive) in [13]; > 100 µM (inactive) in [14]; > 100 µM (inactive) in test [15]; 37.8 µM (inactive) in test [16]; 91.8 µM (inactive) in test [17].
In the case of `O=C(N/N=C(/CCN1CCCC1)CC(c1ccccc1)c1c(O)c2ccccc2oc1=O)c1ccncc1` (stereo unspecified), the GI50 was > 100 µM (inactive) in [1]; > 100 µM (inactive) in test [2]; more than 100 µM in [3]; > 100 µM (inactive) in test [5]; > 100 µM (inactive) in test [6]; > 100 µM (inactive) in test [18]. The GI50 in test [7] was > 100 µM (inactive); in test [8], 87.1 µM (inactive); in test [19] it was 95.1 µM (inactive); in test [9] it was > 100 µM (inactive); in test [10], > 100 µM (inactive); in test [11], > 100 µM (inactive). The GI50 in test [12] was > 100 µM (inactive); in test [13], > 100 µM (inactive); in [14], 35 µM (inactive); in test [15], > 100 µM (inactive); in test [16] it was > 100 µM (inactive).
As for `CCCCOC(=O)Nc1ccc(S(=O)(=O)Nc2c(Cl)cccc2Cl)cc1`, the GI50 in test [1] was 30.2 µM (inactive); in test [2], 25.6 µM (inactive); in test [3] it was 26.7 µM; in test [4], 30.8 µM (inactive); in test [5], 11.1 µM (inactive); in [6], 40.9 µM (inactive). Further, the GI50 in [7] was 26.5 µM (inactive); in [8], 19.6 µM (inactive); in test [9], 32.3 µM (inactive); in test [10], 14.1 µM (inactive); in test [11], 36.1 µM (inactive); in [12] it was 36.1 µM (inactive). Besides, the GI50 in test [13] was 34.1 µM (inactive); in [14], 24.2 µM (inactive); in [15] it was 26.9 µM (inactive); in test [16] it was 39.7 µM (inactive); in test [17], 25.7 µM (inactive).
Take `COc1ccc2nc3ccccc3c(NCCCCN(C)CCCl)c2c1`: the GI50 in [1] was < 0.0174 µM (active); in test [2], 0.0284 µM (active); in test [3], 0.0185 µM; in test [4] it was < 0.01 µM (active); in test [5] it was 0.0435 µM (active); in [6], 0.0513 µM (active). The GI50 is < 0.013 µM (active) in [18]; 0.0199 µM (active) in [7]; 0.0231 µM (active) in test [8]; 0.0652 µM (active) in [9]; 0.0773 µM (active) in test [10]; 0.0407 µM (active) in test [11]. Also, the GI50 in test [12] was 0.0344 µM (active); in [13], 0.0184 µM (active); in [14], 0.0604 µM (active); in test [15], 0.146 µM (active); in test [16], 0.191 µM (active).
Regarding `COc1cc2c(c(OC)c1OC)-c1ccc(SC)c(=O)cc1[C@@H](NC(=O)C(F)(F)F)CC2`, the GI50 in [1] was < 0.01 µM (active); in [2], < 0.0139 µM (active); in [3] it was less than 0.01 µM; in test [4] it was < 0.01 µM (active); in test [5], < 0.01 µM (active); in test [6], < 0.01 µM (active). Further, the GI50 in test [18], in test [7], in test [8], in test [9], in test [10] and in [11] was < 0.01 µM (active) in each case. Also, the GI50 in [12] was < 0.01 µM (active); in [13], < 0.01 µM (active); in [14] it was < 0.01 µM (active); in test [15], < 0.01 µM (active); in test [16] it was < 0.01 µM (active); in test [17], > 60.8 µM (inactive).
